Measured values from US20240182513A1, “SEPARATION OF METAL IONS FROM A SAMPLE USING GLYCOLIPIDS” (ARIZONA BOARD OF REGENTS ON BEHALF OF THE UNIVERSITY OF …, priority 2021, published 2024).

What was measured:
[1] = Example 2.1 rhamnolipid precipitation, filtration, centrifugation: lead; details: for Treatment 3: Rhamnolipid and Centrifugation Cc / Treatment 1: Rhamnolipid Only Cr / Treatment 2: Rhamnolipid and Filtration Cf: lead concentration after treatment; for Treatment 1: Rhamnolipid Only (Rr) efficiency of removal / Treatment 2: Rhamnolipid and Filtration (Rf) efficiency of removal / Treatment 3: Rhamnolipid and Centrifugation (Rc) efficiency of removal: lead
Description: (§1) Structural variants of synthetic glycolipids were used to show the effect of the number and length of the hydrophobic tail(s) on rhamnolipid as a chemical precipitant. […] Solutions (10 mM) were made using nanopure water (≥18 MΩ-cm) then adjusted to a pH of 6.9±0.05 with HNO3 and NaOH. These solutions were made in advance and stored in the cold room for up to one month. They were brought to room temperature before each experiment.
(§2) Three metals were tested for binding with rhamnolipid. Lead as […] (Fisher Scientific, Waltham, MA, 99% purity), was chosen to represent a metal with high rhamnolipid-metal conditional stability constant; lanthanum as La(NO3)3 6(H2O) (Sigma-Aldrich, St. Louis, MO, 99.99% purity) was chosen as a representative REE; and magnesium as Mg(NO3)2 6(H2O) (Sigma-Aldrich, St. Louis, MO, 99% purity) was chosen to represent a metal with a low rhamnolipid-metal conditional stability constant (Hogan et al., 2017). Metal solutions (5 mM) were made using nanopure water (≥18 MΩ-cm) in 20 ml glass scintillation vials. All solutions were used within 15 min to ensure minimal adsorption to the glass vial.
(§3) Three glycolipid-based treatments were evaluated to remove metal from solution: (1) the addition of glycolipid with no further treatment (gravitational precipitation), (2) the addition of a glycolipid followed by filtration or (3) the addition of a glycolipid followed by centrifugation. Each metal (Pb, La, and Mg) was evaluated separately with each of the glycolipid structures. For each experiment, a metal solution was mixed with a glycolipid solution in a 1.7 ml reaction tube at varying molar ratios of glycolipid to metal: 0:1 (glycolipid-free control), 2:1, 5:1, and 10:1. The reactions were mixed in the order of nanopure water (≥18 MΩ-cm), glycolipid solution (10 mM), then metal solution (5 mM). The metal and glycolipid solutions were continuously stirred as they were aliquoted into the reaction tubes. The experiment was performed in triplicate.
(§4) The reaction tubes were mixed overnight (16 to 24 h) and then three samples were collected from each tube to measure the effect of each of the three treatments: a glycolipid only treatment sample, a filtration treatment sample, and a centrifugation treatment sample. Briefly, for the glycolipid only treatment samples all tubes were vortexed for approximately 5 sec immediately before removing 0.1 ml into a dilution tube of 2% trace metal grade nitric acid (12 to 14 ml) to minimize the settling of particles. For the filtration samples each reaction tube was vortexed for 5 sec and then a 0.6 ml aliquot was collected with a 1 ml syringe. A GHP acrodisc disk filter (hydrophilic polypropylene membrane, 0.45 μm pore size, 25 mm disc diameter) from Pall Life Sciences (Port Washington, New York) was then placed onto the end of the syringe and the solution was pushed through the filter. The void space in the disk filter holds approximately 0.5 ml, therefore around 0.1 ml of filtrate was collected into a dilution tube. For the centrifugation sample, the remaining solution was centrifuged at 10,000 RCF for 15 min. Approximately 0.1 ml of the supernatant was aliquoted into a dilution tube. Following collection, all samples were taken for metal analysis using ICP-MS.

[2] = Example 2.1 rhamnolipid precipitation, filtration, centrifugation: lanthanum; details: for Treatment 2: Rhamnolipid and Filtration Cf / Treatment 3: Rhamnolipid and Centrifugation Cc / Treatment 1: Rhamnolipid Only Cr: lanthanum concentration after treatment; for Treatment 2: Rhamnolipid and Filtration (Rf) efficiency of removal / Treatment 3: Rhamnolipid and Centrifugation (Rc) efficiency of removal / Treatment 1: Rhamnolipid Only (Rr) efficiency of removal: lanthanum
Description: as §1, §2, §3, §4

[3] = Example 2.1 rhamnolipid precipitation, filtration, centrifugation: magnesium; details: for Treatment 2: Rhamnolipid and Filtration Cf / Treatment 3: Rhamnolipid and Centrifugation Cc / Treatment 1: Rhamnolipid Only Cr: magnesium concentration after treatment; for Treatment 1: Rhamnolipid Only (Rr) efficiency of removal / Treatment 2: Rhamnolipid and Filtration (Rf) efficiency of removal / Treatment 3: Rhamnolipid and Centrifugation (Rc) efficiency of removal: magnesium
Description: as §1, §2, §3, §4

CCCCCCCC(CC(=O)O)OC1O[C@@H](C)[C@H](O)[C@@H](O)[C@H]1O (stereo partly drawn) [Rha C10]
Treatment 3: Rhamnolipid and Centrifugation Cc ([1]; molar ratio 2 to 1): 0.320 ± 0.045 mmol/L | Treatment 1: Rhamnolipid Only Cr ([1]; molar ratio 5 to 1): 0.293 ± 0.006 mmol/L | Treatment 2: Rhamnolipid and Filtration Cf ([1]; molar ratio 5 to 1): 0.028 ± 0.031 mmol/L | Treatment 3: Rhamnolipid and Centrifugation Cc ([1]; molar ratio 5 to 1): 0.288 ± 0.002 mmol/L | Treatment 1: Rhamnolipid Only Cr ([1]; molar ratio 10 to 1): 0.232 ± 0.009 mmol/L | Treatment 2: Rhamnolipid and Filtration Cf ([1]; molar ratio 10 to 1): 0.001 ± 0.000 mmol/L | Treatment 3: Rhamnolipid and Centrifugation Cc ([1]; molar ratio 10 to 1): 0.231 ± 0.003 mmol/L | Treatment 1: Rhamnolipid Only Cr ([1]; molar ratio rhamnolipid:lead 2 to 1): 0.320 ± 0.012 mmol/L | Treatment 1: Rhamnolipid Only (Rr) efficiency of removal ([1]; molar ratio 2 to 1): (2.7%) | Treatment 2: Rhamnolipid and Filtration (Rf) efficiency of removal ([1]; molar ratio 2 to 1): (88.8%) | Treatment 3: Rhamnolipid and Centrifugation (Rc) efficiency of removal ([1]; molar ratio 2 to 1): (2.5%) | Treatment 1: Rhamnolipid Only (Rr) efficiency of removal ([1]; molar ratio 5 to 1): (10.7%) | Treatment 2: Rhamnolipid and Filtration (Rf) efficiency of removal ([1]; molar ratio 5 to 1): (91.6%) | Treatment 3: Rhamnolipid and Centrifugation (Rc) efficiency of removal ([1]; molar ratio 5 to 1): (12.2%) | Treatment 1: Rhamnolipid Only (Rr) efficiency of removal ([1]; molar ratio 10 to 1): (29.3%) | Treatment 2: Rhamnolipid and Filtration (Rf) efficiency of removal ([1]; molar ratio 10 to 1): (99.8%) | Treatment 3: Rhamnolipid and Centrifugation (Rc) efficiency of removal ([1]; molar ratio 10 to 1): (29.7%) | Treatment 2: Rhamnolipid and Filtration Cf ([2]; molar ratio 2 to 1): 0.096 ± 0.025 mmol/L | Treatment 3: Rhamnolipid and Centrifugation Cc ([2]; molar ratio 2 to 1): 0.228 ± 0.013 mmol/L | Treatment 1: Rhamnolipid Only Cr ([2]; molar ratio 5 to 1): 0.246 ± 0.016 mmol/L | Treatment 2: Rhamnolipid and Filtration Cf ([2]; molar ratio 5 to 1): 0.015 ± 0.010 mmol/L | Treatment 3: Rhamnolipid and Centrifugation Cc ([2]; molar ratio 5 to 1): 0.088 ± 0.003 mmol/L | Treatment 1: Rhamnolipid Only Cr ([2]; molar ratio 10 to 1): 0.190 ± 0.004 mmol/L | Treatment 2: Rhamnolipid and Filtration Cf ([2]; molar ratio 10 to 1): 0.022 ± 0.028 mmol/L | Treatment 3: Rhamnolipid and Centrifugation Cc ([2]; molar ratio 10 to 1): 0.051 ± 0.010 mmol/L | Treatment 1: Rhamnolipid Only Cr ([2]; molar ratio rhamnolipid:lanthanum 2 to 1): 0.282 ± 0.009 mmol/L | Treatment 2: Rhamnolipid and Filtration (Rf) efficiency of removal ([2]; molar ratio 2 to 1): (65.7%) | Treatment 3: Rhamnolipid and Centrifugation (Rc) efficiency of removal ([2]; molar ratio 2 to 1): (18.6%) | Treatment 1: Rhamnolipid Only (Rr) efficiency of removal ([2]; molar ratio 5 to 1): (12.3%) | Treatment 2: Rhamnolipid and Filtration (Rf) efficiency of removal ([2]; molar ratio 5 to 1): (94.6%) | Treatment 3: Rhamnolipid and Centrifugation (Rc) efficiency of removal ([2]; molar ratio 5 to 1): (68.7%) | Treatment 1: Rhamnolipid Only (Rr) efficiency of removal ([2]; molar ratio 10 to 1): (32.2%) | Treatment 2: Rhamnolipid and Filtration (Rf) efficiency of removal ([2]; molar ratio 10 to 1): (92.1%) | Treatment 3: Rhamnolipid and Centrifugation (Rc) efficiency of removal ([2]; molar ratio 10 to 1): (81.7%) | Treatment 2: Rhamnolipid and Filtration Cf ([3]; molar ratio 2 to 1): 0.328 ± 0.036 mmol/L | Treatment 3: Rhamnolipid and Centrifugation Cc ([3]; molar ratio 2 to 1): 0.497 ± 0.014 mmol/L | Treatment 1: Rhamnolipid Only Cr ([3]; molar ratio 5 to 1): 0.492 ± 0.007 mmol/L | Treatment 2: Rhamnolipid and Filtration Cf ([3]; molar ratio 5 to 1): 0.283 ± 0.059 mmol/L | Treatment 3: Rhamnolipid and Centrifugation Cc ([3]; molar ratio 5 to 1): 0.500 ± 0.008 mmol/L | Treatment 1: Rhamnolipid Only Cr ([3]; molar ratio 10 to 1): 0.503 ± 0.004 mmol/L | Treatment 2: Rhamnolipid and Filtration Cf ([3]; molar ratio 10 to 1): 0.317 ± 0.073 mmol/L | Treatment 3: Rhamnolipid and Centrifugation Cc ([3]; molar ratio 10 to 1): 0.490 ± 0.004 mmol/L | Treatment 1: Rhamnolipid Only Cr ([3]; molar ratio rhamnolipid:magnesium 2 to 1): 0.486 ± 0.021 mmol/L | Treatment 1: Rhamnolipid Only (Rr) efficiency of removal ([3]; molar ratio 2 to 1): (3.1%) | Treatment 2: Rhamnolipid and Filtration (Rf) efficiency of removal ([3]; molar ratio 2 to 1): (34.6%) | Treatment 3: Rhamnolipid and Centrifugation (Rc) efficiency of removal ([3]; molar ratio 2 to 1): (0.8%) | Treatment 1: Rhamnolipid Only (Rr) efficiency of removal ([3]; molar ratio 5 to 1): (1.8%) | Treatment 2: Rhamnolipid and Filtration (Rf) efficiency of removal ([3]; molar ratio 5 to 1): (43.6%) | Treatment 3: Rhamnolipid and Centrifugation (Rc) efficiency of removal ([3]; molar ratio 5 to 1): (0.2%) | Treatment 2: Rhamnolipid and Filtration (Rf) efficiency of removal ([3]; molar ratio 10 to 1): (36.7%) | Treatment 3: Rhamnolipid and Centrifugation (Rc) efficiency of removal ([3]; molar ratio 10 to 1): (2.2%)
